According to patent US20180055857A1, “TREATMENT OF ACNE VULGARIS WITH SEQUENTIAL TOPICAL FORMULATIONS COMPRISING ANTIMICROBIAL ORGANIC ACID ANIONS IN ALKALINE PHASE” (KANTIAN SCIENCES CORPORATION, priority 2015, published 2018):
Read-outs that look alike come from different tables or passages of the source.

Experiments:
E. coli O157:H7 = settings: beef tissue briefly dipped in a 1% acid solution at 55° C.; cited from earlier work
Listeria monocytogenes = settings: beef tissue briefly dipped in a 1% acid solution at 55° C.; cited from earlier work

Compound | % HONO (pH 2.6) [%] | % NO2^− (pH 2.6) [%] | % HONO (pH 2.8) [%] | % NO2^− (pH 2.8) [%] | % HONO (pH 3.0) [%] | % NO2^− (pH 3.0) [%] | % HONO (pH 3.3) [%] | % NO2^− (pH 3.3) [%] | % HONO (pH 3.5) [%] | % NO2^− (pH 3.5) [%] | % HONO (pH 4.0) [%] | % NO2^− (pH 4.0) [%] | reduction of E. coli O157:H7 (E. coli O157:H7) | reduction of Listeria monocytogenes (Listeria monocytogenes)
O=NO [Nitrite] | 83.3 | 16.7 | 76.0 | 24.0 | 66.7 | 33.3 | 50.0 | 50.0 | 38.8 | 61.2 | 16.6 | 63.4 |  | 
O=C(O)/C=C/C(=O)O [fumaric acid] |  |  |  |  |  |  |  |  |  |  |  |  | much more effective than lactic or acetic acids | much more effective than lactic or acetic acids
